pEC50: −log10 of the molar value. Activity calls are given as the source filed them. The calls are words filed in the database; no cut-off is given here.
Experiments:
Format in all cases: cell-based
[1] = target: T1, Vitamin D3 receptor (Homo sapiens) (UniProt P11473); experiment: Agonist activity at VP16-fused human full length VDR expressed in COS7 cells assessed as corepressor Gal4 DBD-fused NCOR NRID release at 10 to 1000 nM after 48 hrs by luciferase reporter gene assay based mammalian two-hybrid assay
T1 sequence (whole entry): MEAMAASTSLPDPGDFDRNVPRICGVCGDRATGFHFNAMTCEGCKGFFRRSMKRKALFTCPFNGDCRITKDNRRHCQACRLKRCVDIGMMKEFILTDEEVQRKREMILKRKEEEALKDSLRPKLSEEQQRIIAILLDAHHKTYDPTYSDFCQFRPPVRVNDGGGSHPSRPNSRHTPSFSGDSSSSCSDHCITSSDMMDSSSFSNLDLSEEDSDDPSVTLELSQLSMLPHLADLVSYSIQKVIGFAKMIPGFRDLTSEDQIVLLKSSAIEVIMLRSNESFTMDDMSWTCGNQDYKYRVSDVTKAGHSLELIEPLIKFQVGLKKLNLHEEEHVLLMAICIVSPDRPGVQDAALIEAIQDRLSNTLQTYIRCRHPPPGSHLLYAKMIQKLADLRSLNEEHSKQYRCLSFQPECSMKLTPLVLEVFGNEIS

[2] = target: T2, Vitamin D3 receptor A (Danio rerio) (UniProt Q9PTN2); experiment: Agonist activity at zebrafish VDR LBD (156 to 453 residues) expressed in HEK293 EBNA cells harboring human CYP24-Tk-Luc plasmid assessed as induction of CYP24a1 gene at 1000 nM after 18 hrs by dual-luciferase transcriptional reporter gene assay relative to control
T2 sequence (whole entry): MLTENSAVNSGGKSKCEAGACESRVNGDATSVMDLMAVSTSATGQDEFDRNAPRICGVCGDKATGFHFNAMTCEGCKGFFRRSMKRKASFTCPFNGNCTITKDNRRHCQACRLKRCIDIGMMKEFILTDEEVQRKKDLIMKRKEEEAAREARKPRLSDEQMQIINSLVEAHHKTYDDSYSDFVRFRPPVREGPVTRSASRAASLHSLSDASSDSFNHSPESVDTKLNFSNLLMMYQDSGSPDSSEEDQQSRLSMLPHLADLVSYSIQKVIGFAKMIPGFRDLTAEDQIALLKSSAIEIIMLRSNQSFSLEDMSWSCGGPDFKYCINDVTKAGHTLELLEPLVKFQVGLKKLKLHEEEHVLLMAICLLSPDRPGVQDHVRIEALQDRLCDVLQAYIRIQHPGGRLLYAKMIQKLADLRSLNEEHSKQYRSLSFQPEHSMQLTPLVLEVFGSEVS

Vitamin D3 receptor A = target: T3, Vitamin D3 receptor A (Danio rerio, UniProt Q9PTN2); experiment: Agonist activity at zebrafish VDR LBD (156 to 453 residues) expressed in HEK293 EBNA cells harboring human CYP24-Tk-Luc plasmid assessed as induction of CYP24a1 gene after 18 hrs by dual-luciferase transcriptional reporter gene assay
T3 sequence (Q9PTN2 whole entry): T2 sequence (whole entry)

[3] = target: T1, Vitamin D3 receptor (Homo sapiens); experiment: Agonist activity at VP16-fused human full length VDR expressed in COS7 cells assessed as corepressor Gal4 DBD-fused SMRT NRID release at 10 to 1000 nM after 48 hrs by luciferase reporter gene assay based mammalian two-hybrid assay
[4] = target: T2, Vitamin D3 receptor A (Danio rerio); experiment: Agonist activity at zebrafish VDR LBD (156 to 453 residues) expressed in HEK293 EBNA cells harboring human CYP24-Tk-Luc plasmid assessed as induction of CYP24a1 gene at 0.1 nM after 18 hrs by dual-luciferase transcriptional reporter gene assay
[5] = target: T2, Vitamin D3 receptor A (Danio rerio); experiment: Agonist activity at zebrafish VDR LBD (156 to 453 residues) expressed in HEK293 EBNA cells harboring human CYP24-Tk-Luc plasmid assessed as induction of CYP24a1 gene at 100 nM after 18 hrs by dual-luciferase transcriptional reporter gene assay

Row | SMILES | Activity [1] | Efficacy [2] | pEC50 (Vitamin D3 receptor A) | Activity [3] | Activity [4] | Activity [5]
1 | C=C1/C(=C\C=C2/CCC[C@]3(C)[C@@H]([C@H](C)[C@@H]4CC[C@H](C(C)(C)O)O4)CC[C@@H]23)C[C@@H](O)C[C@H]1O | Active | 47% | < 7.00 | Active | – | –
2 | C=C1/C(=C\C=C2/CCC[C@]3(C)[C@@H]([C@H](C)CCCC(C)(C)O)CC[C@@H]23)C[C@@H](O)C[C@H]1O | – | 100% | – | – | – | –

The remaining lines, values ahead:

Row | Activity [1] | Efficacy [2] | pEC50 (Vitamin D3 receptor A) | Activity [3] | Activity [4] | Activity [5] | SMILES
3 | – | – | – | – | Active | – | C=C1/C(=C\C=C2/CCC[C@@]3(C)[C@H]2CC[C@@H]3[C@]2(C)C[C@@H](CC(C)(C)O)CO2)C[C@@H](O)C[C@@H]1O
4 | Active | 100% | < 7.00 | Active | – | – | C=C1/C(=C\C=C2/CCC[C@]3(C)[C@@H]([C@H](C)[C@H]4CC[C@@H](C(C)(C)O)O4)CC[C@@H]23)C[C@@H](O)C[C@H]1O
5 | Active | 90% | < 7.00 | Active | – | Active | C=C1/C(=C\C=C2/CCC[C@]3(C)[C@@H]([C@H](C)[C@@H]4CC[C@@H](C(C)(C)O)O4)CC[C@@H]23)C[C@@H](O)C[C@H]1O

— ChEMBL document CHEMBL4020715, “Structure-activity relationship study of vitamin D analogs with oxolane group in their side chain” (Eur J Med Chem, 2017)
